Results as given in patent US12077503B2, “Substituted cyclic amides and their use as herbicides” (FMC CORPORATION, priority 2015, dated 2024).

Key:
Format in all cases: in vivo
[1] = test system: velvetleaf (Abutilon theophrasti); experiment: Test G Post-Emergence Protocol; details: Abutilon theophrasti, post-emergence, 312 h, read-out: Velvetleaf damage rating; for pest or weed control at 15.625 g/ha: 15.625 g ai/ha, evaluated after 13 days (100=total damage to plant; 0=no damage to plant); for pest or weed control at 62.5 g/ha: 62.5 g ai/ha; for pest or weed control at 62.5 g/ha / pest or weed control at 250 g/ha: evaluated after 13 days, 100=total damage to plant, 0=no damage to plant; for pest or weed control at 250 g/ha: 250 g ai/ha
Procedure, shortened: (§1)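 Damage was rated 13 days after treatment from 0 (none) to 100 (plant killed). Compound was applied as a spray at 15.625, 62.5 or 250 g/ha in 50:50 acetone/water containing 0.5% Tween 20, onto 8-day-old potted plants kept in a glasshouse (24/16 °C, 14 h light, 65% humidity).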

[2] = test system: ivy-leaved morning glory (Ipomoea hederacea); experiment: Test G Post-Emergence Protocol; details: Ipomoea, post-emergence, 312 h, read-out: Morningglory, Ivy-leaved damage rating; for pest or weed control at 15.625 g/ha: 15.625 g ai/ha, evaluated after 13 days (100=total damage to plant; 0=no damage to plant); for pest or weed control at 62.5 g/ha: 62.5 g ai/ha; for pest or weed control at 62.5 g/ha / pest or weed control at 250 g/ha: evaluated after 13 days, 100=total damage to plant, 0=no damage to plant; for pest or weed control at 250 g/ha: 250 g ai/ha
Procedure, shortened: as §1

[3] = test system: giant foxtail (Setaria faberi); experiment: Test G Post-Emergence Protocol; details: Setaria faberi, post-emergence, 312 h, read-out: Foxtail, Giant damage rating; for pest or weed control at 15.625 g/ha: 15.625 g ai/ha, evaluated after 13 days (100=total damage to plant; 0=no damage to plant); for pest or weed control at 62.5 g/ha: 62.5 g ai/ha; for pest or weed control at 62.5 g/ha / pest or weed control at 250 g/ha: evaluated after 13 days, 100=total damage to plant, 0=no damage to plant; for pest or weed control at 250 g/ha: 250 g ai/ha
Procedure, shortened: as §1

corn (Zea mays) [4] = experiment: Test G Post-Emergence Protocol; details: Zea mays, post-emergence, 312 h, read-out: Corn damage rating; for plant injury at 15.625 g/ha: 15.625 g ai/ha, evaluated after 13 days (100=total damage to plant; 0=no damage to plant); for plant injury at 62.5 g/ha: 62.5 g ai/ha; for plant injury at 62.5 g/ha / plant injury at 250 g/ha: evaluated after 13 days, 100=total damage to plant, 0=no damage to plant; for plant injury at 250 g/ha: 250 g ai/ha
Procedure, shortened: as §1

[5] = test system: redroot pigweed (Amaranthus retroflexus); experiment: Test G Post-Emergence Protocol; details: Amaranthus retroflexus, post-emergence, 312 h, read-out: Pigweed, Redroot damage rating; for pest or weed control at 15.625 g/ha: 15.625 g ai/ha, evaluated after 13 days (100=total damage to plant; 0=no damage to plant); for pest or weed control at 62.5 g/ha: 62.5 g ai/ha; for pest or weed control at 62.5 g/ha / pest or weed control at 250 g/ha: evaluated after 13 days, 100=total damage to plant, 0=no damage to plant; for pest or weed control at 250 g/ha: 250 g ai/ha
Procedure, shortened: as §1

[6] = test system: barnyardgrass (Echinochloa crus-galli); experiment: Test G Post-Emergence Protocol; details: Echinochloa crus-galli, post-emergence, 312 h, read-out: Barnyardgrass damage rating; for pest or weed control at 15.625 g/ha: 15.625 g ai/ha, evaluated after 13 days (100=total damage to plant; 0=no damage to plant); for pest or weed control at 62.5 g/ha: 62.5 g ai/ha; for pest or weed control at 62.5 g/ha / pest or weed control at 250 g/ha: evaluated after 13 days, 100=total damage to plant, 0=no damage to plant; for pest or weed control at 250 g/ha: 250 g ai/ha
Procedure, shortened: as §1

[7] = test system: velvetleaf (Abutilon theophrasti); experiment: Test G Pre-Emergence Protocol; details: Abutilon theophrasti, pre-emergence, 312 h, evaluated after 13 days; for pest or weed control at 15.625 g/ha: 15.625 g ai/ha; for pest or weed control at 15.625 g/ha / pest or weed control at 250 g/ha: read-out: Velvetleaf damage rating (100=total damage to plant; 0=no damage to plant); for pest or weed control at 62.5 g/ha: 62.5 g ai/ha, 100=total damage to plant, 0=no damage to plant, read-out: Velvetleaf damage rating; for pest or weed control at 250 g/ha: 250 g ai/ha
Procedure, shortened: (§2)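 Pre-emergence spray, 15.625/62.5/250 g/ha, vehicle acetone:water 50:50 + 0.5% Tween 20, applied 1 d after sowing. Glasshouse 24/16° C, 14 h light, 65% RH, watered twice daily. Visual damage rating at 13 d, 0–100 scale.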

[8] = test system: ivy-leaved morning glory (Ipomoea hederacea); experiment: Test G Pre-Emergence Protocol; details: Ipomoea, pre-emergence, 312 h, evaluated after 13 days; for pest or weed control at 15.625 g/ha: 15.625 g ai/ha; for pest or weed control at 15.625 g/ha / pest or weed control at 250 g/ha: read-out: Morningglory, Ivy-leaved damage rating (100=total damage to plant; 0=no damage to plant); for pest or weed control at 250 g/ha: 250 g ai/ha
Procedure, shortened: as §2

[9] = test system: giant foxtail (Setaria faberi); experiment: Test G Pre-Emergence Protocol; details: Setaria faberi, pre-emergence, 312 h, evaluated after 13 days; for pest or weed control at 15.625 g/ha: 15.625 g ai/ha; for pest or weed control at 15.625 g/ha / pest or weed control at 250 g/ha: read-out: Foxtail, Giant damage rating (100=total damage to plant; 0=no damage to plant); for pest or weed control at 62.5 g/ha: 62.5 g ai/ha, 100=total damage to plant, 0=no damage to plant, read-out: Foxtail, Giant damage rating; for pest or weed control at 250 g/ha: 250 g ai/ha
Procedure, shortened: as §2

corn (Zea mays) [10] = experiment: Test G Pre-Emergence Protocol; details: Zea mays, pre-emergence, 312 h, evaluated after 13 days; for plant injury at 15.625 g/ha: 15.625 g ai/ha; for plant injury at 15.625 g/ha / plant injury at 250 g/ha: read-out: Corn damage rating (100=total damage to plant; 0=no damage to plant); for plant injury at 62.5 g/ha: 62.5 g ai/ha, 100=total damage to plant, 0=no damage to plant, read-out: Corn damage rating; for plant injury at 250 g/ha: 250 g ai/ha
Procedure, shortened: as §2

[11] = test system: redroot pigweed (Amaranthus retroflexus); experiment: Test G Pre-Emergence Protocol; details: Amaranthus retroflexus, pre-emergence, 312 h, evaluated after 13 days; for pest or weed control at 15.625 g/ha: 15.625 g ai/ha; for pest or weed control at 15.625 g/ha / pest or weed control at 250 g/ha: read-out: Pigweed, Redroot damage rating (100=total damage to plant; 0=no damage to plant); for pest or weed control at 62.5 g/ha: 62.5 g ai/ha, 100=total damage to plant, 0=no damage to plant, read-out: Pigweed, Redroot damage rating; for pest or weed control at 250 g/ha: 250 g ai/ha
Procedure, shortened: as §2

[12] = test system: barnyardgrass (Echinochloa crus-galli); experiment: Test G Pre-Emergence Protocol; details: Echinochloa crus-galli, pre-emergence, 312 h, evaluated after 13 days; for pest or weed control at 15.625 g/ha: 15.625 g ai/ha; for pest or weed control at 15.625 g/ha / pest or weed control at 250 g/ha: read-out: Barnyardgrass damage rating (100=total damage to plant; 0=no damage to plant); for pest or weed control at 62.5 g/ha: 62.5 g ai/ha, 100=total damage to plant, 0=no damage to plant, read-out: Barnyardgrass damage rating; for pest or weed control at 250 g/ha: 250 g ai/ha
Procedure, shortened: as §2

CN1C[C@H](c2ccc(C(F)(F)F)cc2)[C@@H](C(=O)Nc2cccnc2[S+](C)[O-])C1=O (mixture of isomers) [Compound 1788]
pest or weed control at 15.625 g/ha [1]: 0%
pest or weed control at 62.5 g/ha [1]: 10%
pest or weed control at 250 g/ha [1]: 20%
pest or weed control at 15.625 g/ha [2]: 0%
pest or weed control at 62.5 g/ha [2]: 0%
pest or weed control at 250 g/ha [2]: 40%
pest or weed control at 15.625 g/ha [3]: 0%
pest or weed control at 62.5 g/ha [3]: 0%
pest or weed control at 250 g/ha [3]: 0%
plant injury at 15.625 g/ha (corn (Zea mays) [4]): 0%
plant injury at 62.5 g/ha (corn (Zea mays) [4]): 10%
plant injury at 250 g/ha (corn (Zea mays) [4]): 10%
pest or weed control at 15.625 g/ha [5]: 0%
pest or weed control at 62.5 g/ha [5]: 10%
pest or weed control at 250 g/ha [5]: 20%
pest or weed control at 15.625 g/ha [6]: 0%
pest or weed control at 62.5 g/ha [6]: 0%
pest or weed control at 250 g/ha [6]: 0%
pest or weed control at 15.625 g/ha [7]: 0%
pest or weed control at 62.5 g/ha [7]: 0%
pest or weed control at 250 g/ha [7]: 0%
pest or weed control at 15.625 g/ha [8]: 0%
pest or weed control at 62.5 g/ha ([8]; 62.5 g ai/ha, 100=total damage to plant, 0=no damage to plant, read-out: Morningglory, Ivy-leaved damage rating): 0%
pest or weed control at 250 g/ha [8]: 0%
pest or weed control at 15.625 g/ha [9]: 0%
pest or weed control at 62.5 g/ha [9]: 0%
pest or weed control at 250 g/ha [9]: 0%
plant injury at 15.625 g/ha (corn (Zea mays) [10]): 0%
plant injury at 62.5 g/ha (corn (Zea mays) [10]): 0%
plant injury at 250 g/ha (corn (Zea mays) [10]): 0%
pest or weed control at 15.625 g/ha [11]: 0%
pest or weed control at 62.5 g/ha [11]: 0%
pest or weed control at 250 g/ha [11]: 0%
pest or weed control at 15.625 g/ha [12]: 0%
pest or weed control at 62.5 g/ha [12]: 0%
pest or weed control at 250 g/ha [12]: 20%

CN1C[C@H](c2cc(C(C)(C)C)ncn2)[C@@H](C(=O)Nc2cccc(F)c2F)C1=O (racemic) [Compound 1667]
pest or weed control at 15.625 g/ha [1]: 0%
pest or weed control at 62.5 g/ha [1]: 0%
pest or weed control at 250 g/ha [1]: 0%
pest or weed control at 15.625 g/ha [2]: 0%
pest or weed control at 62.5 g/ha [2]: 0%
pest or weed control at 250 g/ha [2]: 0%
pest or weed control at 15.625 g/ha [3]: 0%
pest or weed control at 62.5 g/ha [3]: 0%
pest or weed control at 250 g/ha [3]: 20%
plant injury at 15.625 g/ha (corn (Zea mays) [4]): 0%
plant injury at 62.5 g/ha (corn (Zea mays) [4]): 0%
plant injury at 250 g/ha (corn (Zea mays) [4]): 0%
pest or weed control at 15.625 g/ha [5]: 0%
pest or weed control at 62.5 g/ha [5]: 0%
pest or weed control at 250 g/ha [5]: 0%
pest or weed control at 15.625 g/ha [6]: 0%
pest or weed control at 62.5 g/ha [6]: 0%
pest or weed control at 250 g/ha [6]: 10%
pest or weed control at 15.625 g/ha [7]: 0%
pest or weed control at 62.5 g/ha [7]: 0%
pest or weed control at 250 g/ha [7]: 0%
pest or weed control at 15.625 g/ha [8]: 0%
pest or weed control at 250 g/ha [8]: 30%
pest or weed control at 15.625 g/ha [9]: 0%
pest or weed control at 62.5 g/ha [9]: 10%
pest or weed control at 250 g/ha [9]: 20%
plant injury at 15.625 g/ha (corn (Zea mays) [10]): 0%
plant injury at 62.5 g/ha (corn (Zea mays) [10]): 0%
plant injury at 250 g/ha (corn (Zea mays) [10]): 0%
pest or weed control at 15.625 g/ha [11]: 0%
pest or weed control at 62.5 g/ha [11]: 0%
pest or weed control at 250 g/ha [11]: 0%
pest or weed control at 15.625 g/ha [12]: 0%
pest or weed control at 62.5 g/ha [12]: 10%
pest or weed control at 250 g/ha [12]: 20%
